Reference: patent US20050250793A1, “Preventives/remedies for hot flash” (priority 2002, published 2005)
Where a name gives a salt, the structure may show the parent alone.

Assays:
[1] = Administration to premenopausal healthy females for 14 days; assay type: in vivo, human; settings: 32 premenopausal healthy females (20 to 45 years old), 1 to 25 mg/day for 14 days
Protocol: To 32 premenopausal healthy females (20 years old to 45 years old), 1 to 25 mg/day of the compound of Reference Example 7 was administered for 14 days. As a result, the serum estradiol concentration was reduced, but hot flash was not observed.

[2] = target: T1, rat GnRH receptor (Rattus norvegicus, UniProt P30969); experiment: 125I-leuprorelin binding inhibition, rat anterior pituitary membrane fraction; settings: 1 μM compound, 4° C., 90 minutes, read-out: Binding inhibiting rate (%) Rat (1 μM)
T1 construct: Anterior pituitaries were removed from 40 Whister rats (8 weeks old, male); from tissue; host or cells: rat anterior pituitary membrane fraction
T1 sequence (P30969 1-327): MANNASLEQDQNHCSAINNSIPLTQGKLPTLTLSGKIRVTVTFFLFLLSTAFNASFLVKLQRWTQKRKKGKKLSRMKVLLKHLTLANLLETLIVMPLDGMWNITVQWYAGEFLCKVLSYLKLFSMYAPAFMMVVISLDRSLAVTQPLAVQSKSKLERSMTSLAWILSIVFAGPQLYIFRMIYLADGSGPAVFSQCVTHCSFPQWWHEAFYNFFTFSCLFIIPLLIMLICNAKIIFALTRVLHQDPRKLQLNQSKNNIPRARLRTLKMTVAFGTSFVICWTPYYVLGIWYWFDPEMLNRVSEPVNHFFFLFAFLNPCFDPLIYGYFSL

Structure (SMILES)	hot flash [1]	serum estradiol concentration [1]	inhibition at 1 µM [2] [%]
CONC(=O)Nc1ccc(-c2sc3c(c2CN(C)Cc2ccccc2)c(=O)n(-c2ccccc2)c(=O)n3Cc2c(F)cccc2F)cc1 [Reference Example 7, 5-(N-benzyl-N-methylaminomethyl)-1-(2,6-difluorobenzyl)-6-[4-(3-methoxyureido)phenyl]-3-phenylthieno[2,3-d]pyrimidine-2,4(1H, 3H)-dione]	not observed	reduced	–
CONC(=O)Nc1ccc(-c2sc3c(c2CN(C)Cc2ccccc2)c(=O)n(-c2ccccc2)c(=O)n3Cc2c(F)cccc2F)cc1 [Reference Example 8, 5-(N-benzyl-N-methylaminomethyl)-1-(2,6-difluorobenzyl)-6-[4-(3-methoxyureido)phenyl]-3-phenylthieno[2,3-d]pyrimidine-2,4(1H, 3H)-dione hydrochloride]	–	–	27
